These compounds were tested against Intestinal-type alkaline phosphatase (Homo sapiens, UniProt P09923) (assay: inhibition of human intestinal alkaline phosphatase – biochemical, dose response (AID 488876)).
Sequence of Intestinal-type alkaline phosphatase (P09923 whole entry): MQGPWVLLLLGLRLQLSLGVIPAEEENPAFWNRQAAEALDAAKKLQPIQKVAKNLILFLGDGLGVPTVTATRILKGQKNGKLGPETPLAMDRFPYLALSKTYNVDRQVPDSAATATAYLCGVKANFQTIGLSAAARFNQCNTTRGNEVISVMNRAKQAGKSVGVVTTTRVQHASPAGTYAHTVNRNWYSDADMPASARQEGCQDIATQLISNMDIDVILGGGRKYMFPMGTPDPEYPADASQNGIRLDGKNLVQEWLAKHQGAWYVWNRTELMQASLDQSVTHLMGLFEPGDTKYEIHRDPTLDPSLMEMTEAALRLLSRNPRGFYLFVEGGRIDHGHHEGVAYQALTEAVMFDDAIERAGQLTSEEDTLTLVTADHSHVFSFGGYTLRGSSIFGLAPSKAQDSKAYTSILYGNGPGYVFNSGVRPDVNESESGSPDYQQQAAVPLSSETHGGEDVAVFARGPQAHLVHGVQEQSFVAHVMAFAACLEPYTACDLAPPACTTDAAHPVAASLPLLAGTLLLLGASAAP

| SMILES | IC50 [µM] |
| --- | --- |
| Cc1ccc(Cl)c2c1NC(=O)/C2=C1/NC(=S)NC1=O | > 100 |
| Nc1nnc(CC(=O)N/N=C/C2C=C([N+](=O)[O-])C=C(Br)C2=O)s1 (centres undefined) [2-(5-azanyl-1,3,4-thiadiazol-2-yl)-N'-[(E)-(5-bromanyl-3-nitro-6-oxidanylidene-cyclohexa-2,4-dien-1-ylidene)methyl]ethanehydrazide] | > 100 |
| NS(=O)(=O)c1cc(C(=O)NNC2=c3ccccc3=NC2=O)ccc1Cl [2-chloro-5-[[(2-oxoindol-3-yl)amino]carbamoyl]benzenesulfonamide] | > 100 |
| COc1cc(C=Nn2c(O)csc2=S)ccc1O [3-[[(E)-(3-methoxy-4-oxidanylidene-cyclohexa-2,5-dien-1-ylidene)methyl]amino]-2-sulfanylidene-1,3-thiazolidin-4-one] | 21.3 |
| Oc1ccc(C=Nn2c(O)csc2=S)c(O)c1O [3-[[(E)-[2,3-bis(oxidanyl)-4-oxidanylidene-cyclohexa-2,5-dien-1-ylidene]methyl]amino]-2-sulfanylidene-1,3-thiazolidin-4-one] | > 100 |
| CC1NON=C1C(=O)NN=CC1=CC(=O)C(=O)C=C1 (centres undefined) [4-Methyl-furazan-3-carboxylic acid (3,4-dihydroxy-benzylidene)-hydrazide] | 14 |
| Cc1ccc(/C=C2\SC(=S)N(/N=C/C3C=C([N+](=O)[O-])C=CC3=O)C2=O)o1 (centres undefined) [(5Z)-5-[(5-methylfuran-2-yl)methylidene]-3-[[(E)-(3-nitro-6-oxocyclohexa-2,4-dien-1-ylidene)methyl]amino]-2-sulfanylidene-1,3-thiazolidin-4-one] | 80 |
| C#CCOCCOCCOCCNc1nc(N2CCN(C(=O)CCCCCCCCCCNC(=O)[C@H]([C@@H](C)CC)n3cc(CCCCN=C(N)N)nn3)CC2)nc(N2CCN(C(=O)CCCCCCCCCCNC(=O)[C@@H]([C@H](C)O)n3cc(C)nn3)CC2)n1 [GT-RI] | 86.3 |
| C#CCOCCOCCOCCNc1nc(N2CCN(C(=O)CCCCCCCCCCNC(=O)Cn3cc(CCCCCN)nn3)CC2)nc(N2CCN(C(=O)CCCCCCCCCCNC(=O)Cn3cc(C[C@@H](C)O)nn3)CC2)n1 [KG-TG] | > 100 |
| COc1cc(C=CC(=O)CC(=O)C=Cc2ccc(O)cc2)ccc1O [demethoxycurcumin] | > 100 |

Further lines, results first:

| IC50 [µM] | SMILES |
| --- | --- |
| > 100 | O=C1C=CC(C=NNC(=S)Nc2ccccc2[N+](=O)[O-])C=C1O (centres undefined) [MLS000417596] |
| 14.3 | C#CCOCCOCCOCCNc1nc(N2CCN(C(=O)CCCCCCCCCCNC(=O)[C@@H](CCSC)n3cc(CCO)nn3)CC2)nc(N2CCN(C(=O)CCCCCCCCCCNC(=O)[C@H]([C@@H](C)CC)n3cc(CCCCCN)nn3)CC2)n1 [MLS002153719] |
| > 100 | O=C(Nn1c(O)csc1=S)C(=O)Nn1c(O)csc1=S [SMR000349781] |
| 4.34 | O=C1C=CC(/C=C/c2nc(O)c([N+](=O)[O-])c(=O)[nH]2)C=C1O (centres undefined) [SMR000524347] |
